According to US20250215039A1, “NUCLEOSIDES FOR TREATING CANCER” (PRIMEFOUR THERAPEUTICS, INC., priority 2022, published 2025):
Like-named read-outs stand apart in the source and are kept apart here.

Tested on: cancer cell lines
Test: Cancer cell proliferation activity (CellTiterGlo, 72 h)
Assay type: cell-based
Conditions: 72 h, 72 h, read-out: IC50
How it was run: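 Cells seeded overnight at 37 °C, then dosed with compound at 0.1% final DMSO and incubated 72 h at 37 °C (5% or 10% CO2 by medium).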

Question: `COC[C@]1(CO)O[C@@H](n2cnc3c(N)nc(F)nc32)C[C@@H]1O` [Cpd. No. 140, (2S,3S,5R)-5-(6-amino-2-fluoro-9H-purin-9-yl)-2-(hydroxymethyl)-2-(methoxymethyl)tetrahydrofuran-3-ol] was tested. Which IC50 (5637 cell line (bladder)) did it give?
Answer: 0.66 µM

Question: And the IC50 (AS49 cell line (lung))?
Answer: 4.06 µM

Question: What about the IC50 (CLS439 cell line (bladder)) of the same compound?
Answer: 9.83 µM

Question: And the IC50 (HS729 cell line (muscle))?
Answer: 0.86 µM

Question: What about the IC50 (JAR cell line (placenta)) of the same compound?
Answer: 0.33 µM

Question: What about the IC50 (Homo sapiens, 22Rv1, 72 h, 22RV1 cell line (prostate)) of the same compound?
Answer: 1.24 µM

Question: What about the IC50 (Homo sapiens, 786-0, 72 h, 786O cell line (kidney)) of the same compound?
Answer: 0.4 µM

Question: And the IC50 (Homo sapiens, A204, 72 h, A204 cell line (muscle))?
Answer: 0.27 µM

Question: What about the IC50 (Homo sapiens, A673, 72 h, A673 cell line (bone)) of the same compound?
Answer: 1.95 µM

Question: And the IC50 (Homo sapiens, A2780, 72 h, A2780 cell line (ovary))?
Answer: 0.77 µM

Question: What about the IC50 (Homo sapiens, A-375, 72 h, A375 cell line (skin)) of the same compound?
Answer: 0.21 µM

Question: What about the IC50 (Homo sapiens, A-431, 72 h, A431 cell line (skin)) of the same compound?
Answer: 0.29 µM

Question: And the IC50 (Homo sapiens, ACHN, ACHN cell line (kidney))?
Answer: 2.85 µM

Question: And the IC50 (Homo sapiens, ASPC1, 72 h, ASPC1 cell line (pancreas))?
Answer: 0.23 µM

Question: And the IC50 (Homo sapiens, BT-20, 72 h, BT20 cell line (breast))?
Answer: 0.39 µM

Question: And the IC50 (Homo sapiens, BXPC-3, 72 h, BXPC3 cell line (pancreas))?
Answer: 3.38 µM

Question: And the IC50 (Homo sapiens, C-33-A, C33A cell line (cervical))?
Answer: 0.65 µM

Question: And the IC50 (Homo sapiens, CAKI-1, 72 h, CAKI1 cell line (kidney))?
Answer: 0.03 µM

Question: And the IC50 (Homo sapiens, COLO 205, 72 h, COLO205 cell line (colon))?
Answer: 0.81 µM

Question: And the IC50 (Homo sapiens, COLO-678, 72 h, COLO678 cell line (colon))?
Answer: 4.15 µM

Question: And the IC50 (Homo sapiens, Ca-Ski, CASKI cell line (cervical))?
Answer: 0.2 µM

Question: What about the IC50 (Homo sapiens, Caco-2, 72 h, CACO2 cell line (colon)) of the same compound?
Answer: 0.66 µM

Question: What about the IC50 (Homo sapiens, Calu-6, 72 h, CALU6 cell line (lung)) of the same compound?
Answer: 0.3 µM

Question: What about the IC50 (Homo sapiens, DLD-1, 72 h, DLD1 cell line (colon)) of the same compound?
Answer: 2.49 µM

Question: And the IC50 (Homo sapiens, DU-145, 72 h, DU145 cell line (prostate))?
Answer: 0.16 µM

Question: And the IC50 (Homo sapiens, EFO-21, 72 h, EFO21 cell line (ovary))?
Answer: 0.54 µM

Question: What about the IC50 (Homo sapiens, EJ-28, 72 h, EJ28 cell line (bladder)) of the same compound?
Answer: 0.44 µM

Question: What about the IC50 (Homo sapiens, Granta-519, 72 h, GRANTA-519 cell line (hematological)) of the same compound?
Answer: 3.46 µM

Question: And the IC50 (Homo sapiens, HCT-15, 72 h, HCT15 cell line (colon))?
Answer: 2.07 µM

Question: What about the IC50 (Homo sapiens, HCT-116, 72 h, HCT116 cell line (colon)) of the same compound?
Answer: 0.62 µM

Question: And the IC50 (Homo sapiens, HEK293, 72 h, HEK293 cell line (kidney))?
Answer: 0.46 µM

Question: And the IC50 (Homo sapiens, HL-60, 72 h, HL-60 cell line (hematological))?
Answer: 0.67 µM

Question: And the IC50 (Homo sapiens, HT-29, 72 h, HT29 cell line (colon))?
Answer: 0.3 µM

Question: And the IC50 (Homo sapiens, HT-1080, 72 h, HT1080 cell line (connective tissue))?
Answer: > 50 µM

Question: What about the IC50 (Homo sapiens, HeLa, HELA cell line (cervical)) of the same compound?
Answer: 0.49 µM

Question: What about the IC50 (Homo sapiens, HepG2, 72 h, HEPG2 cell line (liver)) of the same compound?
Answer: 0.45 µM

Question: And the IC50 (Homo sapiens, Hs-578T, HS578T cell line, breast)?
Answer: 0.47 µM

Question: And the IC50 (Homo sapiens, IGROV-1, 72 h, IGROV1 cell line (ovary))?
Answer: 0.34 µM

Question: And the IC50 (Homo sapiens, IMR-90, 72 h, IMR90 cell line, lung)?
Answer: 0.45 µM

Question: And the IC50 (Homo sapiens, J82, 72 h, J82 cell line (bladder))?
Answer: 0.38 µM

Question: What about the IC50 (Homo sapiens, JEG-3, 72 h, JEG3 cell line (placenta)) of the same compound?
Answer: 0.38 µM

Question: What about the IC50 (Homo sapiens, JIMT-1, 72 h, JIMT1 cell line (breast)) of the same compound?
Answer: 0.09 µM

Question: What about the IC50 (Homo sapiens, K562, 72 h, K-562 cell line (hematological)) of the same compound?
Answer: 3.95 µM

Question: What about the IC50 (Homo sapiens, Kasumi 1, 72 h, KASUMI-1 cell line (hematological)) of the same compound?
Answer: 0.08 µM

Question: What about the IC50 (Homo sapiens, L-363, 72 h, L-363 cell line (hematological)) of the same compound?
Answer: 0.42 µM

Question: What about the IC50 (Homo sapiens, LoVo, LOVO cell line (colon)) of the same compound?
Answer: 0.19 µM

Question: What about the IC50 (Homo sapiens, MCF7, 72 h, MCF7 cell line (breast)) of the same compound?
Answer: > 50 µM

Question: What about the IC50 (Homo sapiens, MDA-MB-231, 72 h, MDAMB231 cell line (breast)) of the same compound?
Answer: 7.32 µM

Question: And the IC50 (Homo sapiens, MDA-MB-435, 72 h, MDAMB435 cell line (skin))?
Answer: 1.69 µM

Question: And the IC50 (Homo sapiens, MDA-MB-436, 72 h, MDAMB436 cell line (breast))?
Answer: 0.25 µM

Question: And the IC50 (Homo sapiens, MDA-MB-468, 72 h, MDAMB468 cell line (breast))?
Answer: 0.24 µM

Question: What about the IC50 (Homo sapiens, MG-63, 72 h, MG63 cell line (bone)) of the same compound?
Answer: > 50 µM

Question: What about the IC50 (Homo sapiens, MHH-ES-1, 72 h, MHHES1 cell line (bone)) of the same compound?
Answer: 0.5 µM

Question: And the IC50 (Homo sapiens, MIA PaCa-2, 72 h, MIAPACA2 cell line (pancreas))?
Answer: > 50 µM

Question: And the IC50 (Homo sapiens, MINO, MINO cell line (hematological))?
Answer: 0.18 µM

Question: And the IC50 (Homo sapiens, MV4-11, 72 h, MV4-11 cell line (hematological))?
Answer: 0.16 µM

Question: And the IC50 (Homo sapiens, NCI-H23, 72 h, NCI-H23 cell line (lung))?
Answer: 0.64 µM

Question: And the IC50 (Homo sapiens, NCI-H82, 72 h, NCIH82 cell line (lung))?
Answer: 0.49 µM

Question: What about the IC50 (Homo sapiens, NCI-H292, 72 h, NCIH292 cell line (lung)) of the same compound?
Answer: 2.97 µM

Question: What about the IC50 (Homo sapiens, NCI-H460, 72 h, NCIH460 cell line (lung)) of the same compound?
Answer: 0.6 µM

Question: What about the IC50 (Homo sapiens, OVCAR-3, 72 h, OVCAR3 cell line (ovary)) of the same compound?
Answer: 0.18 µM

Question: What about the IC50 (Homo sapiens, OVCAR-4, 72 h, OVCAR4 cell line (ovary)) of the same compound?
Answer: 0.6 µM

Question: What about the IC50 (Homo sapiens, PANC-1, 72 h, PANC1 cell line (pancreas)) of the same compound?
Answer: > 50 µM

Question: And the IC50 (Homo sapiens, PC-3, 72 h, PC3 cell line (prostate))?
Answer: 0.66 µM

Question: And the IC50 (Homo sapiens, PLC-PRF-5, 72 h, PLCPRF5 cell line (liver))?
Answer: 4.95 µM

Question: And the IC50 (Homo sapiens, Panc1005, 72 h, PANC1005 cell line (pancreas))?
Answer: 0.37 µM

Question: And the IC50 (Homo sapiens, RD, RD cell line (muscle))?
Answer: 0.87 µM

Question: And the IC50 (Homo sapiens, Ramos, RAMOS cell line (hematological))?
Answer: 0.6 µM

Question: And the IC50 (Homo sapiens, SAOS-2, 72 h, SAOS2 cell line (bone))?
Answer: 0.36 µM

Question: And the IC50 (Homo sapiens, SF-268, 72 h, SF268 cell line (brain))?
Answer: > 50 µM

Question: What about the IC50 (Homo sapiens, SF-295, 72 h, SF295 cell line (brain)) of the same compound?
Answer: 1.73 µM

Question: And the IC50 (Homo sapiens, SK-BR-3, 72 h, SKBR3 cell line (breast))?
Answer: 0.07 µM

Question: What about the IC50 (Homo sapiens, SK-HEP1, 72 h, SKHEP1 cell line (liver)) of the same compound?
Answer: 3.41 µM

Question: What about the IC50 (Homo sapiens, SK-LMS-1, 72 h, SKLMS1 cell line (uterus)) of the same compound?
Answer: 0.34 µM

Question: What about the IC50 (Homo sapiens, SK-MEL-5, 72 h, SKMEL5 cell line, skin) of the same compound?
Answer: 4.01 µM

Question: What about the IC50 (Homo sapiens, SK-MEL-28, 72 h, SKMEL28 cell line (skin)) of the same compound?
Answer: 0.67 µM

Question: What about the IC50 (Homo sapiens, SK-N-AS, SKNAS cell line (brain)) of the same compound?
Answer: 0.63 µM

Question: And the IC50 (Homo sapiens, SK-N-SH, SKNSH cell line (brain))?
Answer: 0.32 µM

Question: And the IC50 (Homo sapiens, SK-OV-3, 72 h, SKOV3 cell line (ovary))?
Answer: 0.62 µM

Question: And the IC50 (Homo sapiens, SNB-75, 72 h, SNB75 cell line (brain))?
Answer: 1.51 µM

Question: And the IC50 (Homo sapiens, SU-DHL10, 72 h, SU-DHL-10 cell line (hematological))?
Answer: 0.53 µM

Question: What about the IC50 (Homo sapiens, SU-DHL-6, 72 h, SU-DHL-6 cell line (hematological)) of the same compound?
Answer: 0.36 µM

Question: What about the IC50 (Homo sapiens, SW-620, 72 h, SW620 cell line (colon)) of the same compound?
Answer: 0.54 µM

Question: What about the IC50 (Homo sapiens, T-24, 72 h, T24 cell line (bladder)) of the same compound?
Answer: 0.71 µM

Question: And the IC50 (Homo sapiens, TE-671, 72 h, TE671 cell line (muscle))?
Answer: 1.92 µM

Question: What about the IC50 (Homo sapiens, THP-1, 72 h, THP-1 cell line (hematological)) of the same compound?
Answer: > 50 µM

Question: What about the IC50 (Homo sapiens, U2OS, U2OS cell line (bone)) of the same compound?
Answer: 0.61 µM

Question: What about the IC50 (Homo sapiens, U-87 MG, U87MG cell line (brain)) of the same compound?
Answer: 3.66 µM

Question: What about the IC50 (Homo sapiens, UMUC3, 72 h, UMUC3 cell line (bladder)) of the same compound?
Answer: 3.4 µM

Question: And the IC50 (Homo sapiens, UO-31, 72 h, UO31 cell line (kidney))?
Answer: 0.28 µM

Question: What about the IC50 (Homo sapiens, WSU-NHL, WSU-NHL cell line (hematological)) of the same compound?
Answer: 0.43 µM

Question: What about the IC50 (MT-3, 72 h, MT3 cell line (breast)) of the same compound?
Answer: 0.36 µM

Question: And the IC50 (NCI-H358M, NCIH358M cell line (lung))?
Answer: 0.43 µM

Question: And the IC50 (PBMC, PBMC (hematological))?
Answer: > 50 µM

Question: What about the IC50 (RD-ES, RDES cell line (bone)) of the same compound?
Answer: 0.27 µM
